Reference: ChEMBL document CHEMBL3132759, “Design and synthesis of a novel series of cyclohexyloxy-pyridyl derivatives as inhibitors of diacylglycerol acyl transferase 1” (Medchemcomm, 2013)
≈ marks a conversion by molar mass, not a printed value.

Tests used:
[1] = Lipophilicity, logD of the compound; format: physicochemical; conditions: octanol/water
[2] = Thermodynamic solubility of the compound after 24 hrs at pH 7.4; format: physicochemical; conditions: buffer, read-out: Therm_solubility
[3] = target: T1, Sterol O-acyltransferase 1 (Homo sapiens, UniProt P35610); experiment: Inhibition of human ACAT1
T1 sequence (P35610 whole entry): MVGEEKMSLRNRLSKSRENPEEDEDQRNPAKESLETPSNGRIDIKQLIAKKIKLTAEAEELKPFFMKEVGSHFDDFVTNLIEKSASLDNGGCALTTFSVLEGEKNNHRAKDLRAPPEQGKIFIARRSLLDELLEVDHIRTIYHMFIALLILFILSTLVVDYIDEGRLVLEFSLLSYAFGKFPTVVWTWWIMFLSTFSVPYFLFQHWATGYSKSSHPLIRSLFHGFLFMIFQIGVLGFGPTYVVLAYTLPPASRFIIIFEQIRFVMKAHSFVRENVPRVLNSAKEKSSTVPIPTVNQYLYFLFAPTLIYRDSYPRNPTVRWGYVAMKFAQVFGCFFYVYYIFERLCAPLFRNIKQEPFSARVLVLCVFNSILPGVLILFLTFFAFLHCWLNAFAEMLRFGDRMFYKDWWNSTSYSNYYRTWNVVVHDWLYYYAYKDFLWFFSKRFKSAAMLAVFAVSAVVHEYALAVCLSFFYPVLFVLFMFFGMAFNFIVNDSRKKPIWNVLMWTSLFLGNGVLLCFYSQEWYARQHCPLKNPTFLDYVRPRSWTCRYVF

[4] = target: T2, Diacylglycerol O-acyltransferase 1 (Homo sapiens, UniProt O75907); experiment: Inhibition of human DGAT1
T2 sequence (O75907 whole entry): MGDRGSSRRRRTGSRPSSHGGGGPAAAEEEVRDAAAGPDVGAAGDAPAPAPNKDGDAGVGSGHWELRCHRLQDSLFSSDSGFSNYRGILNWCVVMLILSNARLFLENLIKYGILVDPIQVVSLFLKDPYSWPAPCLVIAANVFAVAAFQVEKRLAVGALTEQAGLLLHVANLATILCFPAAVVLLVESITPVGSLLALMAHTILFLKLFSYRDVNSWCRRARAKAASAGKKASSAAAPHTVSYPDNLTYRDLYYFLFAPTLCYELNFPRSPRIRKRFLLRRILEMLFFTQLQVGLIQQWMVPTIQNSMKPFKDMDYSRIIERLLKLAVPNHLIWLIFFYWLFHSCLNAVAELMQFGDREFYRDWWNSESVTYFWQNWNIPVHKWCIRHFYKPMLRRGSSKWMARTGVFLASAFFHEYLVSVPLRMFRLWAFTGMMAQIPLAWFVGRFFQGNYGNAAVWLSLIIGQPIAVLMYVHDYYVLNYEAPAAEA

[5] = system: Hepatocyte; experiment: Intrinsic clearance in human hepatocytes; format: ADME, cell-based
[6] = species: Canis familiaris; experiment: Unbound clearance in dog; format: ADME, organism-based, Canis lupus familiaris; conditions: in vivo
[7] = Clearance in dog; format: ADME, organism-based, Canis lupus familiaris; conditions: in vivo
[8] = species: Rattus norvegicus; experiment: Unbound clearance in rat; format: ADME, organism-based; conditions: in vivo
[9] = Apparent permeability in MDCK cells assessed as permeability from apical to basolateral side; format: ADME, cell-based, Canis lupus familiaris; conditions: dog
[10] = Clearance in rat; format: ADME, organism-based; conditions: in vivo
[11] = Oral bioavailability in dog; format: ADME, organism-based, Canis lupus familiaris; conditions: in vivo
[12] = Oral bioavailability in rat; format: ADME, organism-based; conditions: in vivo
[13] = Apparent permeability in human Caco2 cells assessed as permeability from apical to basolateral side; format: ADME, cell-based; conditions: Caco-2
[14] = system: Plasma; experiment: Fraction unbound in rat plasma; format: ADME, cell-free
[15] = target: Cytochrome P450 3A4 (Homo sapiens, UniProt P08684); experiment: Inhibition of CYP3A4 (unknown origin); format: ADME
[16] = target: T2, Diacylglycerol O-acyltransferase 1; experiment: Inhibition of DGAT1 in human HuTu80 cells assessed as reduction in triglyceride levels; format: cell-based
[17] = target: Cytochrome P450 2C19 (Homo sapiens, UniProt P33261); experiment: Inhibition of CYP2C19 (unknown origin); format: ADME
[18] = species: Rattus norvegicus; experiment: Reduction in circulating plasma triglyceride levels in rat by oral lipid tolerance test; format: functional, organism-based
[19] = target: T3, Diacylglycerol O-acyltransferase 1 (Rattus norvegicus, UniProt Q9ERM3); experiment: Inhibition of DGAT1 in rat microsomes
T3 sequence (Q9ERM3 whole entry): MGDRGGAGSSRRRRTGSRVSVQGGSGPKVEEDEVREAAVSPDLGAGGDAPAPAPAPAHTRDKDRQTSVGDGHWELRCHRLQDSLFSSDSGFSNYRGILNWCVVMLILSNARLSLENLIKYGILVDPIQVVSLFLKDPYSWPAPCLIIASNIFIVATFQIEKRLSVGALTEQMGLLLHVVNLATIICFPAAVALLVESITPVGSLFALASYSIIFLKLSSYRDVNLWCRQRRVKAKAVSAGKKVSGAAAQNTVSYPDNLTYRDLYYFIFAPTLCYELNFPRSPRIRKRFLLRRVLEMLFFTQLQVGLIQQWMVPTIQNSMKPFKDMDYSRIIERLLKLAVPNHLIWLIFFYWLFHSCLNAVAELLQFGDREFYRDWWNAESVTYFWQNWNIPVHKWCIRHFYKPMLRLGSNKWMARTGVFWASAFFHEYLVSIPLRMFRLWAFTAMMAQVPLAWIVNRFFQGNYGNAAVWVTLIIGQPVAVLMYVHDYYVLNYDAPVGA

[20] = target: T4, Cytochrome P450 1A2 (Homo sapiens, UniProt P05177); experiment: Inhibition of CYP1A2 (unknown origin); format: ADME
T4 sequence (P05177 whole entry): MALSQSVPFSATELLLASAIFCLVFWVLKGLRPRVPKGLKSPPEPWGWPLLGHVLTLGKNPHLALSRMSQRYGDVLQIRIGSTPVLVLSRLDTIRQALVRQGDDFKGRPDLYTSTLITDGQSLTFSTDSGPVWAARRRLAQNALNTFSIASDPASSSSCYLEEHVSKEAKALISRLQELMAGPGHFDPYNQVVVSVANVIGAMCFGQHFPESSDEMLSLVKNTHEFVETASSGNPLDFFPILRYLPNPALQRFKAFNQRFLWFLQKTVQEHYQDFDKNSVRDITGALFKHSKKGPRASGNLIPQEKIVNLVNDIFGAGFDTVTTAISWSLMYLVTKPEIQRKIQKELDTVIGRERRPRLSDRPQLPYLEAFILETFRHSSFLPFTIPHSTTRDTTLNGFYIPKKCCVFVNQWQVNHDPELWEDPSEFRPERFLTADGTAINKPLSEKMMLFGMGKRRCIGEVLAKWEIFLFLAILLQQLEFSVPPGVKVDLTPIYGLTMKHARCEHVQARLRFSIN

[21] = species: Rattus norvegicus; experiment: Reduction in circulating plasma triglyceride levels in rat by oral lipid tolerance test by PK/PD analysis; format: functional, organism-based
[22] = target: Voltage-gated inwardly rectifying potassium channel KCNH2 (Homo sapiens, UniProt Q12809); experiment: Inhibition of human ERG
[23] = target: Cytochrome P450 2C9 (Homo sapiens, UniProt P11712); experiment: Inhibition of CYP2C9 (unknown origin); format: ADME
[24] = target: Cytochrome P450 2D6 (Homo sapiens, UniProt P10635); experiment: Inhibition of CYP2D6 (unknown origin); format: ADME
[25] = target: T5, Diacylglycerol O-acyltransferase 2 (Homo sapiens, UniProt Q96PD7); experiment: Inhibition of human DGAT2
T5 sequence (Q96PD7 whole entry): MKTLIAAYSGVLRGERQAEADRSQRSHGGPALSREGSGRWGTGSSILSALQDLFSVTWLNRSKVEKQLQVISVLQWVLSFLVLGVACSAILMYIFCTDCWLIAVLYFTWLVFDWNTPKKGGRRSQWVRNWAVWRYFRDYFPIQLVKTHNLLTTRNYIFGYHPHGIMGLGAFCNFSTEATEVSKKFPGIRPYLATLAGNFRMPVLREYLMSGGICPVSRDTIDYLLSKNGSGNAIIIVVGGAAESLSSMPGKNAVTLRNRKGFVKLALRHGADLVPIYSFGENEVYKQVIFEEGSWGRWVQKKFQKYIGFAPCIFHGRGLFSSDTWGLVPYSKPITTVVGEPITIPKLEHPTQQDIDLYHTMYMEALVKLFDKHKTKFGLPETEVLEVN

Chain of Cytochrome P450 2C9 (P11712 whole entry): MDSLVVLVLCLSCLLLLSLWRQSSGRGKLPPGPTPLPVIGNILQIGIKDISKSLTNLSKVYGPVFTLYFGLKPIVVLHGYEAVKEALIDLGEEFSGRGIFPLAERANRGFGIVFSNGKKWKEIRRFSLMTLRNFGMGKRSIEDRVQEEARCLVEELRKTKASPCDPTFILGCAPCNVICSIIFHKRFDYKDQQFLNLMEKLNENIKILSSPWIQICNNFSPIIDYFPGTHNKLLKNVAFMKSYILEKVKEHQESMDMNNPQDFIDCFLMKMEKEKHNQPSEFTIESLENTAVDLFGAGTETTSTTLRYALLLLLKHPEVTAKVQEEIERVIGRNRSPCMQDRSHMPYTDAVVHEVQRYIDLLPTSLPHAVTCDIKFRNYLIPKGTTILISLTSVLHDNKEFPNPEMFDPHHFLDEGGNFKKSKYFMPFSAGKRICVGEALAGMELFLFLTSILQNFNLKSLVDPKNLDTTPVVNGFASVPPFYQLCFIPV
Chain of Cytochrome P450 2C19 (P33261 whole entry): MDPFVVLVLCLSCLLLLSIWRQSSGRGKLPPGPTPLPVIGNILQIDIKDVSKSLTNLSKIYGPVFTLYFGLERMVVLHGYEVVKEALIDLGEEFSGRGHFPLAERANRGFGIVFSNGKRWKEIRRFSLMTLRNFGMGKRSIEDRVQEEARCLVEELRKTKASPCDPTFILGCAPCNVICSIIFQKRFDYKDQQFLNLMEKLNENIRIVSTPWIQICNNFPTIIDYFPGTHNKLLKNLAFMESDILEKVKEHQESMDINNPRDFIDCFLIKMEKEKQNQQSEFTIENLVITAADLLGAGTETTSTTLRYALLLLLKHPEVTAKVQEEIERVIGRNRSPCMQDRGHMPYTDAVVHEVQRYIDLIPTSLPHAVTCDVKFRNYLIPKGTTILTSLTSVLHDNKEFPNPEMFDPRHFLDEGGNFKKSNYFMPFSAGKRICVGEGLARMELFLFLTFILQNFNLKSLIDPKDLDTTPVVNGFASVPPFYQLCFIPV
Chain of Voltage-gated inwardly rectifying potassium channel KCNH2 (Q12809 whole entry): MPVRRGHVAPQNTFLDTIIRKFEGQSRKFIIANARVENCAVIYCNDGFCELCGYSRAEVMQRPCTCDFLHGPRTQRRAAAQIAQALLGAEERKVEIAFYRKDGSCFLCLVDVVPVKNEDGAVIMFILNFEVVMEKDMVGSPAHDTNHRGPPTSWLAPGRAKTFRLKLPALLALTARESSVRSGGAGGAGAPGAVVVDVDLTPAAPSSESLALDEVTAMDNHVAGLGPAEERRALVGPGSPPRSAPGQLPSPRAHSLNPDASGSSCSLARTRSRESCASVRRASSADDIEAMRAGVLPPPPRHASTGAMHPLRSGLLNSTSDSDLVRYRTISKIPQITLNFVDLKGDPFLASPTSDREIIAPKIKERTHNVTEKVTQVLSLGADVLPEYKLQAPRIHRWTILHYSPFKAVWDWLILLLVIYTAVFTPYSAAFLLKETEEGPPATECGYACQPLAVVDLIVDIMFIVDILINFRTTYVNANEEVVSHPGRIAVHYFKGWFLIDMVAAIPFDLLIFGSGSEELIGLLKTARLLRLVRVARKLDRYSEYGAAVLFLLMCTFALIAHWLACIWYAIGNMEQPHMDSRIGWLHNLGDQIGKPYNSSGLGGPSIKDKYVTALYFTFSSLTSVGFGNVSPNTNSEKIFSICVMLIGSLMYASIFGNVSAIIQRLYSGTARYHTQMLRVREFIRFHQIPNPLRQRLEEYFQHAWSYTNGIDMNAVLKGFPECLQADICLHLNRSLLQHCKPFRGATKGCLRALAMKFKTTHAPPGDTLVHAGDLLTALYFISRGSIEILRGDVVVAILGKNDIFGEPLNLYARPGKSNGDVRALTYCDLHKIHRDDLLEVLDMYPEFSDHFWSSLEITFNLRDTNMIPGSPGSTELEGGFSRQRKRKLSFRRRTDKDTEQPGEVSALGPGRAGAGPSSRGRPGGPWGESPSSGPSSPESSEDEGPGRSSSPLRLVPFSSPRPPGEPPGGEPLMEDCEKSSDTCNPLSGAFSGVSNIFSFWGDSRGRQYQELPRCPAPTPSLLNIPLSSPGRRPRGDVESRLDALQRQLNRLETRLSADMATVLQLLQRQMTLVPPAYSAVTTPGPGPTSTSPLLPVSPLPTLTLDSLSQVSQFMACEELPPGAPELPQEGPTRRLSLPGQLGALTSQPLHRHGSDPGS
Chain of Cytochrome P450 2D6 (P10635 whole entry): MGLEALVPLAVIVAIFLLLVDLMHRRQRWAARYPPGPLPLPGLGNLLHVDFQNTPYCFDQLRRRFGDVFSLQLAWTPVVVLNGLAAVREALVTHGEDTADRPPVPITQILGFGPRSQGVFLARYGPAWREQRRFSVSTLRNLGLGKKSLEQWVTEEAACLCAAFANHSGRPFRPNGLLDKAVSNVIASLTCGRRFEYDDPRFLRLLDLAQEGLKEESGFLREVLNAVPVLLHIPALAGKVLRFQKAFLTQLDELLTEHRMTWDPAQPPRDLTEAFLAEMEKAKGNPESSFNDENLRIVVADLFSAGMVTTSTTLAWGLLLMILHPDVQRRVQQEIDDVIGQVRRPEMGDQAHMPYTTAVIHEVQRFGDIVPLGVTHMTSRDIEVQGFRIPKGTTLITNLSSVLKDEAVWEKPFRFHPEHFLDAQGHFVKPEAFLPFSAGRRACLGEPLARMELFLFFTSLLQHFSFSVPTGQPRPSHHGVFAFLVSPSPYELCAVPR
Chain of Cytochrome P450 3A4 (P08684 whole entry): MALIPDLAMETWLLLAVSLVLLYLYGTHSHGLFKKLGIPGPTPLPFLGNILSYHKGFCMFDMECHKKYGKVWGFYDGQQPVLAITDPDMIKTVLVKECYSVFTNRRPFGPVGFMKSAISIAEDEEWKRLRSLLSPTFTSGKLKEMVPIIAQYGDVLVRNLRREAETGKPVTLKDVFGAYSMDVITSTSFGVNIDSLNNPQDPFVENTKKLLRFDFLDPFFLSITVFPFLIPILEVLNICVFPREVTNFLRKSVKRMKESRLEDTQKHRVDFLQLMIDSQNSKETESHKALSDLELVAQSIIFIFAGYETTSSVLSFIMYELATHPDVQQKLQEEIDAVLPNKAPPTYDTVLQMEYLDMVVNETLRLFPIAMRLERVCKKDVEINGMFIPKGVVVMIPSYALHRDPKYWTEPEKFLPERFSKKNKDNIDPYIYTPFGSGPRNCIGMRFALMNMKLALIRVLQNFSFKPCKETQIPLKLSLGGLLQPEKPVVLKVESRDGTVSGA

Row | Compound | logD [1] | solubility thermodynamic at 24 h [2] | IC50 [3] | IC50 [4] | Intrinsic clearance (CLint) [5] | CL free [6] | clearance [7] | CL free [8] | Papp A→B [9] | clearance [10] | bioavailability [11] | bioavailability [12] | further results
1 | O=C(Nc1cnc(O[C@H]2CC[C@@H](C(=O)O)CC2)cc1F)c1nnc(Nc2cc(F)c(F)cc2F)o1 | 1.6 | 240 µM (≈ 119 µg/mL) | 1300 nM | 6 nM |  |  |  |  |  |  |  |  | 
2 | O=C(Nc1ccc(O[C@H]2CC[C@@H](C(=O)O)CC2)nc1F)c1nnc(Nc2ccc(F)c(F)c2)o1 | 1.9 | 15 µM (≈ 7.16 µg/mL) | 4800 nM | 3 nM | < 2 µL/min/mg | 300 mL/min/kg | 5.1 mL/min/kg | 600 mL/min/kg | 16 ×10⁻⁶ cm/s | 3.6 mL/min/kg |  |  | 
3 | O=C(O)c1ccc(Oc2ccc(NC(=O)c3nnc(Nc4ccc(F)c(F)c4)o3)cn2)cc1 | 1.4 | 23 µM (≈ 10.4 µg/mL) | 5600 nM | 5 nM |  |  |  |  | 1.1 ×10⁻⁶ cm/s |  |  |  | 
4 | O=C(Nc1ccc(O[C@H]2CC[C@@H](C(=O)O)CC2)cc1F)c1nnc(Nc2cc(F)c(F)cc2F)o1 | 1.9 | 69 µM (≈ 34.1 µg/mL) | 310 nM | 3 nM | < 2 µL/min/mg | 1700 mL/min/kg | 6.5 mL/min/kg | 200 mL/min/kg |  | 0.4 mL/min/kg | 76% | 85% | Papp A→B [13]: 33 ×10⁻⁶ cm/s
5 | O=C(Nc1ccc(O[C@H]2CC[C@@H](C(=O)O)CC2)cc1)c1nnc(Nc2ccc(F)c(F)c2)o1 |  | 3 µM (≈ 1.38 µg/mL) | 1100 nM | 4 nM |  |  |  |  |  |  |  |  | 
6 | O=C(O)C[C@H]1CC[C@H](c2ccc(NC(=O)c3nnc(Nc4ccc(F)c(F)c4)o3)cc2)CC1 |  | 2 µM (≈ 0.913 µg/mL) |  |  |  |  |  |  |  |  |  |  | 
7 | O=C(Nc1ccc(O[C@H]2CC[C@H](C(=O)O)CC2)cc1F)c1nnc(Nc2cc(F)c(F)cc2F)o1 | 1.8 | 13 µM (≈ 6.43 µg/mL) | 6500 nM | 15 nM |  |  |  |  |  |  |  |  | 
8 | O=C(Nc1ccc(O[C@H]2CC[C@@H](C(=O)O)CC2)nc1)c1nnc(Nc2ccc(F)c(F)c2)o1 | 1.9 | 49 µM (≈ 22.5 µg/mL) | 6500 nM | 5 nM | < 2 µL/min/mg | 130 mL/min/kg | 4.7 mL/min/kg | 740 mL/min/kg | 2 ×10⁻⁶ cm/s | 7.4 mL/min/kg | 60% | 33% | 
9 | O=C(Nc1ccc(O[C@H]2CC[C@@H](C(=O)O)CC2)cc1)c1nnc(Nc2ccc(F)cc2)o1 | 1.2 | 5 µM (≈ 2.2 µg/mL) | 1800 nM | 5 nM |  |  |  |  |  |  |  |  | 
10 | N#Cc1ccc(Nc2nnc(C(=O)Nc3ccc(O[C@H]4CC[C@@H](C(=O)O)CC4)cc3)o2)cc1 | 1.4 |  | 14300 nM | 18 nM |  |  |  |  |  |  |  |  | 
11 | O=C(Nc1ccc(O[C@H]2CC[C@@H](C(=O)O)CC2)nc1F)c1nnc(Nc2cc(F)c(F)cc2F)o1 | 1.8 | 2200 µM (≈ 1090 µg/mL) | 1100 nM | 4 nM | < 2 µL/min/mg | 200 mL/min/kg | 4.6 mL/min/kg | 300 mL/min/kg | 15 ×10⁻⁶ cm/s | 1.8 mL/min/kg | 61% | 100% | 
12 | O=C(Nc1ccc(O[C@H]2CC[C@H](C(=O)O)CC2)cc1)c1nnc(Nc2cc(F)c(F)cc2F)o1 | 1.9 | 27 µM (≈ 12.9 µg/mL) |  |  |  |  |  |  |  |  |  |  | 
13 | O=C(Nc1ccc(O[C@H]2CC[C@@H](C(=O)O)CC2)cc1)c1nnc(Nc2cc(F)c(F)cc2F)o1 | 1.9 | 43 µM (≈ 20.5 µg/mL) |  |  | < 2 µL/min/mg | 920 mL/min/kg | 11 mL/min/kg | 470 mL/min/kg | 11 ×10⁻⁶ cm/s | 1.1 mL/min/kg | 23% | 115% | Fu [14]: 0.4%
14 | O=C(O)c1cccc(Oc2ccc(NC(=O)c3nnc(Nc4ccc(F)c(F)c4)o3)cc2)c1 | 2.3 | 6 µM (≈ 2.71 µg/mL) |  |  | < 22 µL/min/mg |  |  |  |  |  |  |  | Fu [14]: < 0.01%
15 | O=C(O)C[C@H]1CC[C@@H](Oc2ccc(NC(=O)c3nnc(Nc4ccc(F)c(F)c4)o3)cn2)CC1 | 2.2 | 4 µM (≈ 1.89 µg/mL) | 1500 nM | 7 nM | < 2 µL/min/mg | 100 mL/min/kg | 2.3 mL/min/kg | 230 mL/min/kg | 5.1 ×10⁻⁶ cm/s | 0.7 mL/min/kg | 35% | 82% | IC50 [15]: > 10000 nM; IC50 [16]: 4 nM; IC50 [17]: > 10000 nM; inhibition [18]: Dose-dependent effect; IC50 [19]: 0.9 nM; IC50 [20]: > 10000 nM; IC50 [21]: 0.2 nM; IC50 [22]: > 30000 nM; IC50 [23]: > 10000 nM; IC50 [24]: > 10000 nM; IC50 [25]: 28000 nM
16 | O=C(Nc1ccc(O[C@H]2CC[C@@H](C(=O)O)CC2)c(F)c1)c1nnc(Nc2cc(F)c(F)cc2F)o1 | 2.3 | 11 µM (≈ 5.44 µg/mL) |  |  |  |  |  |  |  |  |  |  | 
